TLR7 signal (NF-kB luciferase) (% of resiquimod alone) and TLR8 potentiation (NF-kB luciferase) (fold of resiquimod alone) data for 35 substances are collected here from the OligoGym collection.

Strand notation (5' to 3'): a small letter for the sugar, then the base; units joined by * are phosphorothioate-linked, units joined directly phosphodiester-linked; [ ] holds rarer units or linkages, { } end groups; capitals alone tell only the bases. d = 2'-deoxy (DNA); m = 2'-O-methyl

For data set [1], the target named is LINC-PINT. Put plainly: HEK293-TLR7, 100 nM ASO, then resiquimod.
For data set [2], the target named is LINC-PINT. As to the kind of experiment: HEK293-TLR8, 100 nM ASO, then resiquimod.

In the data set with LINC-PINT [1], “mA*mC*mC*mC*mU*dT*dC*dT*dC*dT*dC*dT*dG*dG*dT*mC*mC*mC*mA*mU” had a TLR7 signal (NF-kB luciferase) (% of resiquimod alone) of 43.4. The TLR8 potentiation (NF-kB luciferase) (fold of resiquimod alone) with LINC-PINT [2] turned out to be 2.55.
For “mC*mA*mC*mC*mC*dT*dT*dC*dT*dC*dT*dC*dT*dG*dG*mU*mC*mC*mC*mA”, in that order: 73.3 and 1.85.
On to “mA*mA*mA*mG*mU*dC*dA*dA*dA*dA*dA*dG*dA*dA*dA*mA*mA*mC*mU*mG”, for which the TLR7 signal (NF-kB luciferase) (% of resiquimod alone) with LINC-PINT [1] came out at 45.6. Moreover, the TLR8 potentiation (NF-kB luciferase) (fold of resiquimod alone) with LINC-PINT [2] worked out at 1.62.
The corresponding values for “mG*mC*mA*mA*mG*dG*dC*dA*dG*dA*dG*dA*dA*dA*dC*mU*mC*mC*mA*mG” are 20 and 1.45.
With “mG*mU*mU*mC*mA*dG*dT*dC*dA*dG*dA*dT*dC*dG*dC*mU*mG*mG*mG*mA”, the TLR7 signal (NF-kB luciferase) (% of resiquimod alone) in the data set with LINC-PINT [1] was found to be 17.5. Moreover, the TLR8 potentiation (NF-kB luciferase) (fold of resiquimod alone) with LINC-PINT [2] was found to be 1.55.
Substance “mU*mC*mU*mG*mG*dT*dC*dC*dC*dA*dT*dC*dC*dC*dT*mU*mC*mU*mG*mC” had a TLR7 signal (NF-kB luciferase) (% of resiquimod alone) in the data set with LINC-PINT [1] of 29.4. For the same substance, the TLR8 potentiation (NF-kB luciferase) (fold of resiquimod alone) in the data set with LINC-PINT [2] was 3.36.
The corresponding values for “mC*mC*mU*mU*mC*dT*dG*dC*dT*dG*dC*dC*dA*dA*dG*mC*mC*mC*mC*mA” are 85.6 and 1.45.
For “mG*mG*mU*mC*mC*dC*dA*dT*dC*dC*dC*dT*dT*dC*dT*mG*mC*mU*mG*mC”, in that order: 20.8 and 1.28.
The corresponding values for “mU*mG*mA*mC*mA*dA*dA*dA*dC*dA*dA*dT*dA*dA*dT*mA*mA*mC*mA*mG” are 36.7 and 1.31.
Take “mU*mU*mU*mA*mU*dA*dT*dT*dA*dC*dA*dA*dA*dG*dC*mU*mA*mC*mU*mU”: the TLR7 signal (NF-kB luciferase) (% of resiquimod alone) with LINC-PINT [1] was 33.7. In addition, the TLR8 potentiation (NF-kB luciferase) (fold of resiquimod alone) with LINC-PINT [2] is 2.71.
For “mA*mG*mU*mU*mU*dA*dT*dA*dG*dA*dT*dT*dT*dC*dA*mA*mG*mU*mA*mG”, in that order: 37.6 and 3.06.
“mG*mU*mC*mC*mG*dT*dA*dC*dC*dT*dC*dC*dA*dC*dC*mC*mA*mC*mC*mG” showed a TLR7 signal (NF-kB luciferase) (% of resiquimod alone) with LINC-PINT [1] of 22.8. In addition, in the data set with LINC-PINT [2], the TLR8 potentiation (NF-kB luciferase) (fold of resiquimod alone) stood at 1.7.
For “mA*mA*mA*mA*mG*dT*dG*dG*dG*dA*dA*dA*dT*dA*dA*mA*mG*mG*mU*mU”, the TLR7 signal (NF-kB luciferase) (% of resiquimod alone) with LINC-PINT [1] was 30.9. The TLR8 potentiation (NF-kB luciferase) (fold of resiquimod alone) with LINC-PINT [2] stood at 1.48.
The corresponding values for “mU*mC*mU*mC*mU*dG*dG*dT*dC*dC*dC*dA*dT*dC*dC*mC*mU*mU*mC*mU” are 78.2 and 5.44.
For “mA*mA*mA*mA*mA*dG*dT*dG*dG*dG*dA*dA*dA*dT*dA*mA*mA*mG*mG*mU”, in that order: 28.8 and 1.34.
In the case of “mC*mC*mC*mU*mA*dA*dT*dG*dC*dT*dT*dT*dC*dC*dT*mC*mU*mC*mC*mA”, in the data set with LINC-PINT [1], the TLR7 signal (NF-kB luciferase) (% of resiquimod alone) was 58.4. For the same substance, the TLR8 potentiation (NF-kB luciferase) (fold of resiquimod alone) with LINC-PINT [2] was 2.7.
With “mU*mG*mG*mC*mG*dT*dA*dG*dT*dT*dT*dC*dT*dC*dT*mU*mC*mC*mU*mC”, the TLR7 signal (NF-kB luciferase) (% of resiquimod alone) in the data set with LINC-PINT [1] came to 32.8. In addition, the TLR8 potentiation (NF-kB luciferase) (fold of resiquimod alone) with LINC-PINT [2] was determined as 2.48.
For “mU*mU*mC*mU*mC*dT*dC*dT*dG*dG*dT*dC*dC*dC*dA*mU*mC*mC*mC*mU”, in that order: 26.2 and 2.83.
Substance “mC*mU*mU*mC*mU*dC*dT*dC*dT*dG*dG*dT*dC*dC*dC*mA*mU*mC*mC*mC” had a TLR7 signal (NF-kB luciferase) (% of resiquimod alone) with LINC-PINT [1] of 56.2. Also, in the data set with LINC-PINT [2], the TLR8 potentiation (NF-kB luciferase) (fold of resiquimod alone) stood at 2.92.
For “mA*mA*mA*mU*mG*dT*dC*dC*dT*dG*dG*dC*dC*dC*dT*mC*mA*mC*mU*mG”, in that order: 46.5 and 1.45.
Take “mU*mU*mU*mG*mA*dA*dA*dT*dT*dC*dA*dG*dA*dA*dG*mA*mU*mU*mU*mG”: the TLR7 signal (NF-kB luciferase) (% of resiquimod alone) with LINC-PINT [1] was found to be 35.1. In addition, the TLR8 potentiation (NF-kB luciferase) (fold of resiquimod alone) in the data set with LINC-PINT [2] stood at 2.57.
In the data set with LINC-PINT [1], “mU*mC*mU*mC*mU*dC*dT*dG*dG*dT*dC*dC*dC*dA*dT*mC*mC*mC*mU*mU” yielded a TLR7 signal (NF-kB luciferase) (% of resiquimod alone) of 43.8. In the data set with LINC-PINT [2], the TLR8 potentiation (NF-kB luciferase) (fold of resiquimod alone) came out at 3.68.
For “mC*mA*mC*mU*mG*dT*dA*dT*dT*dT*dT*dA*dT*dT*dA*mC*mA*mG*mA*mA”, in that order: 58.1 and 2.67.
For “mC*mC*mC*mU*mU*dC*dT*dC*dT*dC*dT*dG*dG*dT*dC*mC*mC*mA*mU*mC”, in that order: 49.6 and 2.6.
The corresponding values for “mG*mC*mG*mU*mA*dG*dT*dT*dT*dC*dT*dC*dT*dT*dC*mC*mU*mC*mC*mC” are 27.2 and 1.86.
In turn, “mC*mU*mC*mU*mC*dT*dG*dG*dT*dC*dC*dC*dA*dT*dC*mC*mC*mU*mU*mC” showed a TLR7 signal (NF-kB luciferase) (% of resiquimod alone) with LINC-PINT [1] of 85. Also, in the data set with LINC-PINT [2], the TLR8 potentiation (NF-kB luciferase) (fold of resiquimod alone) was 2.73.
In the data set with LINC-PINT [1], “mU*mU*mG*mG*mC*dC*dT*dG*dT*dG*dG*dA*dT*dG*dC*mU*mU*mU*mG*mU” returned a TLR7 signal (NF-kB luciferase) (% of resiquimod alone) of 21.4. Also, the TLR8 potentiation (NF-kB luciferase) (fold of resiquimod alone) in the data set with LINC-PINT [2] is 0.75.
The corresponding values for “mA*mU*mG*mA*mC*dA*dT*dT*dT*dC*dG*dT*dG*dG*dC*mU*mC*mC*mU*mA” are 32.5 and 0.88.
“mC*mA*mU*mC*mC*dC*dT*dT*dC*dT*dG*dC*dT*dG*dC*mC*mA*mA*mG*mC” yielded a TLR7 signal (NF-kB luciferase) (% of resiquimod alone) in the data set with LINC-PINT [1] of 54.3. The TLR8 potentiation (NF-kB luciferase) (fold of resiquimod alone) with LINC-PINT [2] is 2.95.
For “mU*mA*mU*mU*mC*dA*dT*dA*dT*dT*dT*dT*dT*dA*dT*mU*mU*mC*mA*mG”, in that order: 87.1 and 4.47.
For “mG*mG*mG*mU*mC*dT*dC*dC*dT*dC*dC*dA*dC*dA*dC*mC*mC*mU*mU*mC”, in that order: 21.5 and 0.87.
For “mU*mG*mA*mU*mG*dA*dT*dG*dC*dT*dT*dG*dC*dA*dG*mG*mA*mG*mG*mC”, in that order: 25.5 and 1.18.
Consider “mC*mC*mA*mU*mC*dC*dC*dT*dT*dC*dT*dG*dC*dT*dG*mC*mC*mA*mA*mG”, for which the TLR7 signal (NF-kB luciferase) (% of resiquimod alone) with LINC-PINT [1] is 52.6. Further, the TLR8 potentiation (NF-kB luciferase) (fold of resiquimod alone) in the data set with LINC-PINT [2] worked out at 2.38.
Turning to “mU*mG*mU*mU*mU*dC*dC*dC*dC*dG*dG*dA*dG*dA*dG*mC*mA*mA*mU*mG”, the TLR7 signal (NF-kB luciferase) (% of resiquimod alone) in the data set with LINC-PINT [1] was found to be 30.9. In addition, the TLR8 potentiation (NF-kB luciferase) (fold of resiquimod alone) with LINC-PINT [2] was found to be 1.62.
Regarding “mA*mG*mC*mC*mG*dA*dA*dC*dA*dG*dA*dA*dG*dG*dA*mG*mC*mG*mU*mC”, in the data set with LINC-PINT [1], the TLR7 signal (NF-kB luciferase) (% of resiquimod alone) worked out at 27.7. In addition, the TLR8 potentiation (NF-kB luciferase) (fold of resiquimod alone) with LINC-PINT [2] stood at 2.54.
